From patent US5858985A, “Treatment of asthma with fructose-1,6-diphosphate” (priority 1997, dated 1999) come the findings set out here.

Where “and” joins values, the source holds several entries; their conditions need not be identical. Equal entries are not always repeated. Entries after “also recorded” stand apart in the source; their conditions may differ. Where two headings read alike, the source gives them in different places.

Series [1] relates to Sprague-Dawley rats injected with compound 48/80. Kind of series: compound 48/80-induced shock (histamine release by mast cells) in rats. It counts as in vivo, rat. The protocol:
As noted above, the release of histamine by mast cells plays a significant role in aggravating asthma attacks. FDP was evaluated to determine whether it could help suppress histamine release by mast cells, in tests that use a compound called "48/80", which is known to trigger the release of histamine by mast cells. This compound, if injected into an animal at an appropriate dosage, will trigger sufficient histamine release to send the animal into anaphylactic shock, which poses a lethal challenge. Useful physiological measurements can be made during the test period, and if mortality is studied as an endpoint, an animal is deemed to survive if it lives for 48 hours after injection of the 48/80 compound.
Anesthetized male Sprague-Dawley rats (n=20) weighing 448±7.4 gm were randomly assigned into 2 groups. Animals in the FDP-treated group were injected intraperitoneally (IP) with a 10% (w/v) solution of FDP in water, at a dosage of 2.5 gm/kg (i.e., 2.5 grams of FDP per kilogram of body weight). […] Thirty minutes later, all rats were injected IP with compound 48/80, at 5 mg/kg.

Series [2] relates to membrane-bonded Na+--K+ ATPase enzymes. It counts as biochemical, rat. The note with it: pretreatment with 500 μM FDP.
Method: Oleander toxins were prepared by air-drying leaves from red-flowering Nerium oleander plants for 4 days, pulverizing the leaves to a fine powder in a blender, and extracting the leaves in a 95% ethyl alcohol solution for 10 days. After extraction, the tincture was filtered, and part of the alcohol solvent was removed by flash evaporation, to a volume where 1 gram of crude drug was equal to 1 ml of alcohol solution. The extract was stored as a stock solution at 0° C., and periodically analyzed for alkaloid content by high pressure liquid chromatography, using oleandrin as an external standard. […]
When ready for use, intact isolated rat hearts were transferred to ice-cold homogenizing medium (50 mM Na2 HPO4, 10 mM Na2 EDTA, and 25 mM NaF, pH 7.4). […]
The pellet obtained after this centrifugation, consisting of crude membrane vesicles, was suspended in a storage buffer (30 mM histidine, 0.25 M sucrose, 10 mM EDTA, and 10 mM NaF, pH 7.5) and stored at -80° C. until use. Protein content was determined using a Biorad protein assay kit, with gamma globulin as a standard.
The Na^+ --K^+ ATPase activity levels for these sarcolemmal membrane preparations was determined calorimetrically by measuring how much inorganic phosphate (Pi) was liberated when the ATPase enzyme hydrolyzed ATP to release phosphate groups. […]
Series [3] has as its system rat T-lymphocyte. Put plainly: inhibition of T-lymphocyte proliferation after stimulation with Con-A ((3H)-thymidine incorporation). It is filed as cell-based. The protocol: Lymphocyte cells were isolated either from human venous blood or rat spleen. The cells were suspended in Dulbecco's media. A manual cell count was done using 0.1 ml of Trypan blue and 0.1 ml of the cell media mixture. […] Tissue culture multi-well plates were used for incubation and in each well 0.1 ml of cell suspension was placed. To the FDP treatment wells (in triplicate) were added 0.1 ml of FDP from 10% stock solution, in serial dilutions which included 1:10, 1:100, 1:250, 1:500; 1:1000, and 1:10000). Cyclosporine treatment wells received 0.1 ml cyclosporine A, at various concentrations including 500 ng/ml, 50 ng/ml; 5 ng/ml and 0.5 ng/ml. All wells except control wells received concanavalin A (conA) at […] (0.01 ml). The final volume for all wells was 0.21 ml.
After incubation, the cells were pulsed in 5% Co2 at 37° C. with 1 μCi of (^3 H)-thymidine (i.e., the cells were incubated for a controlled period of time with thymidine, one of the building blocks of DNA, which contained tritium, a radioactive isotope of hydrogen). The cells were harvested, and washed to remove any tritiated thymidine that had not been incorporated into new DNA. The radioactivity levels of the treated cells were then measured, using a scintillation counter. The results, in Table 2, are reported as counts/min.
(Dividing cells build labelled thymidine or BrdU into new DNA.)

For series [4], the system named is RNA encoding the IL-2 protein. Kind of series: IL-2 RNA expression in ConA-stimulated lymphocytes (reverse transcription, PCR, densitometry). It is filed as cell-based. The note with it: rat lymphocytes pre-treated with FDP, ConA stimulation, 5 days of incubation. The procedure: The Applicant also investigated the expression of cytokines by T-lymphocytes. Isolated lymphocytes were obtained from rats, and incubated with stimulation by ConA treatment, as described above; treated cells were pre-treated with FDP, as described above, while control cells were not treated with FDP. After 5 days of incubation, RNA was extracted from the lymphocytes, using RNA-stat60. The integrity of RNA samples was evaluated by use of agarose-formaldehyde gel electrophoresis, and its quantity was determined spectrophotometrically.
The RNA was transcribed into complementary DNA (cDNA), using a reverse transcriptase enzyme. 10 μl of solution containing 1 μg of total cellular RNA was heated at 65° C. for 10 min, and then chilled on ice. To this solution was added 10 μl of a mixture containing 2× reverse transcriptase buffer (100 mM Tris-HCl, pH 8.3, 150 mM KC1, 6 MM MgCl2), 1 μg oligo(dT)12-18, 100 μg/ml of acetylated bovine serum albumin, 0.5 mM mixed deoxynucleotides (dNTP), 10 units of RNAasin, and 100 units of MMLV reverse transcriptase enzyme. The mixture was incubated for 45 min at 35° C., then chilled on ice.
The cDNA sequences for three specific interleukins (IL-1, IL-2, and IL-6) were then amplified, using polymerase chain reaction (PCR) techniques, using previously published sense and anti-sense primer sequences for rat IL-1, rat IL-2, and rat IL-6. […]

Series [5] concerns human IL-2. Kind of series: interleukin-2 production by human T-cells stimulated by Con-A (ELISA). The note with it: all tested FDP concentrations, result in words. It counts as cell-based. The procedure: In addition, the amounts of IL-2 released by human T-cells were also evaluated, using ConA stimulation in the presence or absence of FDP. These tests used a commercially available human immunoassay kit (Inter Test-2X IL-2 Elisa Kit, sold by Genzyme Corp., Cambridge, Mass.) which uses monoclonal antibodies that bind specifically to human IL-2. The results, in Table 3, indicate that FDP, at all tested concentrations, abolished IL-2 production by the stimulated human T-lymphocytes. IL-2 concentrations are expressed in picograms per milliliter of media.
(In general: An ELISA detects its analyte on a solid surface through an enzyme-linked reagent.)

Series [6] relates to mongrel dogs challenged with methacholine. Kind of series: acute experimental asthma (bronchospasm) induced in dogs by methacholine inhalation. It counts as in vivo, dog.
Series [7] deals with human volunteers. Put plainly: lung function (peak expiratory flow rate) in healthy human volunteers after nebulized inhalation. It counts as in vivo. The procedure: When adjusted to deliver 56-68 L/min with a 5-6 L/min oxygen flow, the final oxygen content was 28%. The output tube from the nebulizer was connected to a standard face mask, which was placed on the face of the subject. The bottle of the nebulizer contained 100 ml of the FDP solution. The FDP dose delivered in the mist, during the 5 consecutive breaths, was calculated to be about 12 mg.
Prior to the FDP inhalation, in each volunteer, 3 consecutive peak expiratory flow rate (PEFR) measurements were made with the aid of an Astech Peak Flow Meter (Center Laboratories, Port Washington, N.Y. 11050). Briefly, these tests involved having each volunteer take as deep a breath as possible, and then blow as hard as possible into the meter. This was done over a period of a couple of minutes, giving the volunteer some time to catch their breath before and after each effort. The mean of these three measurements was considered as the baseline PEFR value for that person. Baseline heart rates, systolic and diastolic blood pressures, and body temperatures were also measured.
FDP inhalations (5 breaths in each set) were then made, approximately 15, 30, 45, 75, 105 and 165 minutes after the baseline measurements had been made. On several occasions, FDP inhalations were also made, 2 and 5 minutes after the baseline measurements were taken. After each such inhalation, three different expirations were measured, all within a couple of minutes after the FDP inhalation had been completed. The various measurements made after FDP inhalation were compared with the baseline values, before FDP administration. The t-test was used to compare paired observations, and differences were considered significant only when the two-tailed p value was <0.05.

Series [8] has as its system human test subject with chronic cough. Kind of series: repeated FDP inhalation in a volunteer with chronic cough secondary to allergic bronchitis. It counts as in vivo. The text has this: This subject participated in several studies over 10 days. Prior to FDP inhalation, their baseline PEFR was 390 L/min. This value increased with each and every FDP treatment.
Setting [9] is: one subject, reported after 10 days of FDP inhalations.

One may read the mortality as the share of the test organisms that died.

Turning to `O=C(COP(=O)(O)O)[C@@H](O)[C@H](O)[C@H](O)COP(=O)(O)O` [FDP, fructose-1,6-diphosphate], the arterial pressure entry in series [1] (FDP 2.5 gm/kg IP 30 min before compound 48/80 5 mg/kg IP, vs saline group, P<0.005, FIG. 1) is recorded as “significantly higher than in the saline group”. The mortality in series [1] (FDP 2.5 gm/kg IP before compound 48/80 5 mg/kg IP, survival = 48 hours, saline group 100%, P<0.001) is 20%. The plasma potassium entry in series [1] (FDP 2.5 gm/kg IP before compound 48/80 5 mg/kg IP, vs saline group, P<0.01, FIG. 2, 5 mg/kg) is given as “remained within normal values; also recorded: lower”. Besides, the “average arterial partial pressure of oxygen (PO2)” value in series [1] (FDP 2.5 gm/kg IP before compound 48/80, saline group 98±9.2) was 121±6.1 mm Hg. Moreover, the “Na+--K+ ATPase activity” value in series [2] (oleander extract 1.0 mg) is on record as 19.32 ± 0.62 micromoles of inorganic phosph; in series [2] (oleander extract 2.0 mg), 15.75 ± 0.39 micromoles of inorganic phosph. Also, the “Activation Index” value in series [3] (Con-A plus 1:10 dilution of 10% FDP stock, Con-A alone 30718 ± 4316, no Con-A 527 ± 139) is listed as 101 ± 16 counts/min; in series [3] (Con-A plus 1:100 dilution of 10% FDP stock) it was 190 ± 42 counts/min; in series [3] (Con-A plus 1:250 dilution of 10% FDP stock) it was 383 ± 170 counts/min; in series [3] (Con-A plus 1:500 dilution of 10% FDP stock), 3592 ± 974 counts/min; in series [3] (Con-A plus 1:1000 dilution of 10% FDP stock), 12288 ± 1880 counts/min; in series [3] (Con-A plus 1:10,000 dilution of 10% FDP stock), 19046 ± 3237 counts/min. Besides, the “ConA-induced activation and proliferation of T-cells” value in series [3] (result in words, cyclosporine A tested at 0.5 to 500 ng/ml) was “able to block ConA activation of the lymphocytes; also recorded: inhibited the ConA-induced activation and proliferation of T-cells in a dose dependent manner”. The “RNA encoding the IL-2 protein” value in series [4] is “no detectable levels of RNA encoding the IL-2 protein”. The “IL-2 production by the stimulated human T-lymphocytes” value in series [5] is “no detectable IL-2”. The “arterial blood oxygen partial pressure, Baseline” value in series [6] (dogs pre-treated with aerosolized 10% FDP for 3 minutes, before methacholine) amounted to 89 ± 1.74 mm Hg. Besides, the “arterial blood oxygen partial pressure (PaO2), 5 min” value in series [6] (dogs pre-treated with aerosolized 10% FDP, 5 min after methacholine, controls 47 ± 2.85, p = 0.007) is 70±5.62 mm Hg and 69 ± 6.49 mm Hg. For the same molecule, the “arterial blood oxygen partial pressure (PaO2), 15 min” value in series [6] (dogs pre-treated with aerosolized 10% FDP, 15 min after methacholine, controls 53 ± 3.86, p < 0.001) was 81 ± 3.36 mm Hg. The PCO2 result in series [6] (dogs, methacholine challenge with FDP treatment) is “no consistent alterations”. Further, the “PaO2 level at 5 minutes after FDP treatment” value in series [6] (five dogs treated with FDP after (not before) methacholine, p<0.006) worked out at 64±4.26 mm Hg. Besides, in series [6] (five dogs treated with FDP after (not before) methacholine, p<0.01), the “PaO2 level at 30 minutes after FDP treatment” value was determined as 80±4.04 mm Hg. Further, the “PaO2 level at 15 minutes after FDP treatment” value in series [6] (five dogs treated with FDP after (not before) methacholine, p<0.02) was 72±1.84 mm Hg. Moreover, the side effects entry was “no side effects were noticed” in series [7] (all tests on volunteers, other than decreased heart rates and increased pulmonary ventilation rates); “no side effects were detected” in series [7] (one volunteer, high dosages (700 to 750 mg, 20% or 10% solution, ten minute inhalation)). In addition, the “blood pressure or body temperature” value in series [7] (five volunteers, 10% FDP nebulized) is “did not elicit any changes”. Also, in series [7] (five volunteers, 10% FDP nebulized, 5 breaths (about 12 mg), baseline 471±29.6, P<0.005), the “mean peak expiratory flow rate (PEFR) following FDP administration” value worked out at 529 ± 35.6 L/min. Also, the “PEFR after inhalation session” value in series [7] (one volunteer, 20% FDP solution for 10 min, 700 mg inhaled, baseline 616) was determined as 667 L/min. For the same molecule, in series [8] (one subject with chronic cough, repeated FDP inhalation, baseline 390, P<0.01), the “PEFR at 10 days after the first inhalation” value was 520 L/min. Also, in series [8] (setting [9]), the breathing entry is “substantially improved”. The coughing entry in series [8] (setting [9]) is recorded as “nearly disappeared”.
In the case of albuterol sulfate [reference compound], the PEFR result in series [7] (albuterol sulfate inhalation solution 0.005% w/v in 0.9% NaCl, two occasions, identical procedures) is listed as “did not induce any significant change”.
